How the values were obtained:
[1] = tested on: HT-29; assay: Cytotoxicity against human HT-29 cells assessed as reduction in cell viability; type: functional, cell-based
[2] = Cytotoxicity against human MRC5 cells assessed as cell viability at 100 uM relative to control; type: cell-based; details: read-out: Activity
[3] = Cytotoxicity against human HK1 cells assessed as cell viability at 100 uM relative to control; type: functional; details: HK-1, read-out: Activity
[4] = tested on: A549; assay: Cytotoxicity against human A549 cells assessed as cell viability at 100 uM relative to control; type: functional; details: read-out: Activity
[5] = tested on: MDA-MB-231; assay: Cytotoxicity against human MDA-MB-231 cells assessed as reduction in cell viability; type: functional, cell-based
[6] = tested on: SW1990; assay: Cytotoxicity against human SW1990 cells assessed as cell viability at 100 uM relative to control; type: functional; details: read-out: Activity
[7] = tested on: SW1990; assay: Cytotoxicity against human SW1990 cells assessed as reduction in cell viability; type: functional, cell-based
[8] = tested on: MRC5; assay: Cytotoxicity against human MRC5 cells assessed as reduction in cell viability; type: cell-based
[9] = tested on: Caco-2; assay: Cytotoxicity against human Caco2 cells assessed as cell viability at 100 uM relative to control; type: functional; details: read-out: Activity
[10] = tested on: Caco-2; assay: Cytotoxicity against human Caco2 cells assessed as reduction in cell viability; type: functional, cell-based
[11] = tested on: SW48; assay: Cytotoxicity against human SW48 cells assessed as reduction in cell viability; type: functional, cell-based
[12] = tested on: SW48; assay: Cytotoxicity against human SW48 cells assessed as cell viability at 100 uM relative to control; type: functional; details: read-out: Activity
[13] = tested on: MCF7; assay: Cytotoxicity against human MCF7 cells assessed as cell viability at 100 uM relative to control; type: functional; details: read-out: Activity
[14] = tested on: ASPC1; assay: Cytotoxicity against human AsPC1 cells assessed as cell viability at 100 uM relative to control; type: functional; details: read-out: Activity
[15] = tested on: ASPC1; assay: Cytotoxicity against human AsPC1 cells assessed as reduction in cell viability; type: functional, cell-based
[16] = tested on: SH-SY5Y; assay: Cytotoxicity against human SH-SY5Y cells assessed as cell viability at 100 uM relative to control; type: functional; details: read-out: Activity
[17] = Cytotoxicity against human HK1 cells assessed as reduction in cell viability; type: functional, cell-based; details: HK-1
[18] = tested on: CNE; assay: Cytotoxicity against human CNE1 cells assessed as reduction in cell viability; type: functional, cell-based
[19] = tested on: SUNE1; assay: Cytotoxicity against human SUNE1 cells assessed as cell viability at 100 uM relative to control; type: functional; details: read-out: Activity
[20] = tested on: SK-BR-3; assay: Cytotoxicity against human SKBR3 cells assessed as cell viability at 100 uM relative to control; type: functional; details: read-out: Activity
[21] = tested on: T47D; assay: Cytotoxicity against human T47D cells assessed as reduction in cell viability; type: functional, cell-based
[22] = tested on: MDA-MB-468; assay: Cytotoxicity against human MDA-MB-468 cells assessed as reduction in cell viability; type: functional, cell-based
[23] = tested on: CNE; assay: Cytotoxicity against human CNE1 cells assessed as cell viability at 100 uM relative to control; type: functional; details: read-out: Activity
[24] = tested on: A549; assay: Cytotoxicity against human A549 cells assessed as reduction in cell viability; type: functional, cell-based
[25] = tested on: SH-SY5Y; assay: Cytotoxicity against human SH-SY5Y cells assessed as reduction in cell viability; type: functional, cell-based
[26] = tested on: MDA-MB-468; assay: Cytotoxicity against human MDA-MB-468 cells assessed as cell viability at 100 uM relative to control; type: functional; details: read-out: Activity
[27] = tested on: HT-29; assay: Cytotoxicity against human HT-29 cells assessed as cell viability at 100 uM relative to control; type: functional; details: read-out: Activity
[28] = tested on: HCT-116; assay: Cytotoxicity against human HCT116 cells assessed as reduction in cell viability; type: functional, cell-based
[29] = tested on: SUNE1; assay: Cytotoxicity against human SUNE1 cells assessed as reduction in cell viability; type: functional, cell-based
[30] = tested on: MDA-MB-231; assay: Cytotoxicity against human MDA-MB-231 cells assessed as cell viability at 100 uM relative to control; type: functional; details: read-out: Activity
[31] = tested on: NCI-H1299; assay: Cytotoxicity against human H1299 cells assessed as cell viability at 100 uM relative to control; type: functional; details: read-out: Activity
[32] = Cytotoxicity against human MCF10A cells assessed as cell viability at 100 uM relative to control; type: cell-based, MCF-10A; details: read-out: Activity
[33] = tested on: SK-BR-3; assay: Cytotoxicity against human SKBR3 cells assessed as reduction in cell viability; type: functional, cell-based
[34] = tested on: MCF7; assay: Cytotoxicity against human MCF7 cells assessed as reduction in cell viability; type: functional, cell-based
[35] = tested on: HCT-116; assay: Cytotoxicity against human HCT116 cells assessed as cell viability at 100 uM relative to control; type: functional; details: read-out: Activity
[36] = tested on: BXPC-3; assay: Cytotoxicity against human BxPC3 cells assessed as cell viability at 100 uM relative to control; type: functional; details: read-out: Activity
[37] = tested on: MCF-10A; assay: Cytotoxicity against human MCF10A cells assessed as reduction in cell viability; type: cell-based
[38] = tested on: BXPC-3; assay: Cytotoxicity against human BxPC3 cells assessed as reduction in cell viability; type: functional, cell-based
[39] = tested on: T47D; assay: Cytotoxicity against human T47D cells assessed as cell viability at 100 uM relative to control; type: functional; details: read-out: Activity
[40] = tested on: NCI-H1299; assay: Cytotoxicity against human H1299 cells assessed as reduction in cell viability; type: functional, cell-based

SMILES | IC50 [1] [µM] | viability at 100 µM [2] [%] | viability at 100 µM [3] [%] | viability at 100 µM [4] [%] | IC50 [5] [µM] | viability at 100 µM [6] [%] | IC50 [7] [µM] | IC50 [8] [µM] | viability at 100 µM [9] [%] | IC50 [10] [µM] | IC50 [11] [µM] | viability at 100 µM [12] [%] | viability at 100 µM [13] [%] | viability at 100 µM [14] [%] | IC50 [15] [µM] | viability at 100 µM [16] [%] | IC50 [17] [µM] | IC50 [18] [µM] | viability at 100 µM [19] [%] | viability at 100 µM [20] [%] | further results
O=[N+]([O-])c1cc(C(F)(F)F)ccc1NC(CO)CO | > 100 | 64.9 | 92.9 | 57.9 | > 100 | 68.5 | > 100 | > 100 | 89.5 | > 100 | > 100 | 98.8 | 57.4 | 81.8 | > 100 | 84.9 | > 100 | > 100 | 83.4 | 66.4 | IC50 [21]: > 100 µM; IC50 [22]: > 100 µM; viability at 100 µM [23]: 106%; IC50 [24]: > 100 µM; IC50 [25]: > 100 µM; viability at 100 µM [26]: 100%; viability at 100 µM [27]: 95.2%; IC50 [28]: > 100 µM; IC50 [29]: > 100 µM; viability at 100 µM [30]: 67.3%; viability at 100 µM [31]: 91.3%; viability at 100 µM [32]: 102%; IC50 [33]: > 100 µM; IC50 [34]: > 100 µM; viability at 100 µM [35]: 83.9%; viability at 100 µM [36]: 108%; IC50 [37]: > 100 µM; IC50 [38]: > 100 µM; viability at 100 µM [39]: 68.6%; IC50 [40]: > 100 µM
O=[N+]([O-])c1ccc(NC(CO)CO)c([N+](=O)[O-])c1 | > 100 | 78.9 | 103 | 77.4 | > 100 | 65.8 | > 100 | > 100 | 102 | > 100 | > 100 | 88.2 | 55.5 | 108 | > 100 | 86.1 | > 100 | > 100 | 106 | 98.9 | IC50 [21]: > 100 µM; IC50 [22]: > 100 µM; viability at 100 µM [23]: 102%; IC50 [24]: > 100 µM; IC50 [25]: > 100 µM; viability at 100 µM [26]: 106%; viability at 100 µM [27]: 89.6%; IC50 [28]: > 100 µM; IC50 [29]: > 100 µM; viability at 100 µM [30]: 79.4%; viability at 100 µM [31]: 89.8%; viability at 100 µM [32]: 105%; IC50 [33]: > 100 µM; IC50 [34]: > 100 µM; viability at 100 µM [35]: 81.9%; viability at 100 µM [36]: 104%; IC50 [37]: > 100 µM; IC50 [38]: > 100 µM; viability at 100 µM [39]: 79.9%; IC50 [40]: > 100 µM
O=[N+]([O-])c1ccc(NC(CCl)CCl)c([N+](=O)[O-])c1 | > 100 | 24.3 | 88.9 | 59.4 | > 100 | 69.8 | > 100 | 54.1 | 105 | > 100 | > 100 | 55.2 | 25.1 | 106 | > 100 | 63.6 | > 100 | > 100 | 68.6 | 71.6 | IC50 [21]: 85.3 µM; IC50 [22]: > 100 µM; viability at 100 µM [23]: 70.5%; IC50 [24]: > 100 µM; IC50 [25]: > 100 µM; viability at 100 µM [26]: 61.3%; viability at 100 µM [27]: 89.1%; IC50 [28]: > 100 µM; IC50 [29]: > 100 µM; viability at 100 µM [30]: 83.4%; viability at 100 µM [31]: 96.3%; viability at 100 µM [32]: 78.8%; IC50 [33]: > 100 µM; IC50 [34]: 44.3 µM; viability at 100 µM [35]: 73.1%; viability at 100 µM [36]: 103%; IC50 [37]: > 100 µM; IC50 [38]: > 100 µM; viability at 100 µM [39]: 58.7%; IC50 [40]: > 100 µM
O=[N+]([O-])c1cc(C(F)(F)F)ccc1NC(CCl)CCl | 87.8 | 29.9 | 59.7 | 24.6 | 54.5 | 42.1 | 92.1 | 62.1 | 21.9 | 39.9 | 62.3 | 32.8 | 21.4 | 51.1 | > 100 | 33.7 | > 100 | 32.1 | 42.3 | 38.5 | IC50 [21]: 35.1 µM; IC50 [22]: > 100 µM; viability at 100 µM [23]: 27.1%; IC50 [24]: 33.3 µM; IC50 [25]: 62.5 µM; viability at 100 µM [26]: 65.1%; viability at 100 µM [27]: 47.1%; IC50 [28]: 82.1 µM; IC50 [29]: 92.9 µM; viability at 100 µM [30]: 32.1%; viability at 100 µM [31]: 52.4%; viability at 100 µM [32]: 77.1%; IC50 [33]: 67.8 µM; IC50 [34]: 34.3 µM; viability at 100 µM [35]: 45.1%; viability at 100 µM [36]: 62.9%; IC50 [37]: > 100 µM; IC50 [38]: > 100 µM; viability at 100 µM [39]: 25.6%; IC50 [40]: > 100 µM
